Source: ChEMBL document CHEMBL3044672, “N9- and N7-(Chloromethyl Phenymethyl)Chloropurine Derivatives from , '-Dichloroxylenes: Synthesis and Anticancer Activity” (2005)

Experiments:
Type in all cases: functional
[1] = system: OVCAR-4; assay: Cytotoxicity against Homo sapiens (human) OVCAR4 cells after 48 hr by sulforhodamine B assay; conditions: OVCAR-4, 48 h
[2] = system: IGROV-1; assay: Cytotoxicity against Homo sapiens (human) IGROV1 cells after 48 hr by sulforhodamine B assay; conditions: IGROV-1, 48 h
[3] = system: OVCAR-3; assay: Cytotoxicity against Homo sapiens (human) OVCAR3 cells after 48 hr by sulforhodamine B assay; conditions: OVCAR-3, 48 h
[4] = system: UACC-62; assay: Cytotoxicity against Homo sapiens (human) UACC62 cells after 48 hr by sulforhodamine B assay; conditions: UACC-62, 48 h
[5] = system: UACC-257; assay: Cytotoxicity against Homo sapiens (human) UACC257 cells after 48 hr by sulforhodamine B assay; conditions: UACC-257, 48 h
[6] = system: SK-MEL-5; assay: Cytotoxicity against Homo sapiens (human) SK-MEL-5 cells after 48 hr by sulforhodamine B assay; conditions: SK-MEL-5, 48 h
[7] = system: SK-MEL-2; assay: Cytotoxicity against Homo sapiens (human) SK-MEL-2 cells after 48 hr by sulforhodamine B assay; conditions: SK-MEL-2, 48 h
[8] = system: U-251; assay: Cytotoxicity against Homo sapiens (human) U251 cells after 48 hr by sulforhodamine B assay; conditions: U-251, 48 h
[9] = system: SF-539; assay: Cytotoxicity against Homo sapiens (human) SF539 cells after 48 hr by sulforhodamine B assay; conditions: SF-539, 48 h
[10] = system: MDA-MB-435; assay: Cytotoxicity against Homo sapiens (human) MDA-MB-435 cells after 48 hr by sulforhodamine B assay; conditions: MDA-MB-435, 48 h
[11] = Cytotoxicity against Homo sapiens (human) NCI-ADR-RES cells after 48 hr by sulforhodamine B assay
[12] = system: MDA-MB-231; assay: Cytotoxicity against Homo sapiens (human) MDA-MB-231 cells after 48 hr by sulforhodamine B assay; conditions: MDA-MB-231, 48 h
[13] = system: PC-3; assay: Cytotoxicity against Homo sapiens (human) PC3 cells after 48 hr by sulforhodamine B assay; conditions: PC-3, 48 h
[14] = system: SN12C; assay: Cytotoxicity against Homo sapiens (human) SN12C cells after 48 hr by sulforhodamine B assay
[15] = system: RXF 393; assay: Cytotoxicity against Homo sapiens (human) RXF393 cells after 48 hr by sulforhodamine B assay; conditions: RXF 393, 48 h
[16] = system: CAKI-1; assay: Cytotoxicity against Homo sapiens (human) Caki1 cells after 48 hr by sulforhodamine B assay; conditions: CAKI-1, 48 h
[17] = system: KM12; assay: Cytotoxicity against Homo sapiens (human) KM12 cells after 48 hr by sulforhodamine B assay; conditions: KM12, 48 h
[18] = system: HT-29; assay: Cytotoxicity against Homo sapiens (human) HT-29 cells after 48 hr by sulforhodamine B assay; conditions: HT-29, 48 h
[19] = system: HCT-116; assay: Cytotoxicity against Homo sapiens (human) HCT116 cells after 48 hr by sulforhodamine B assay; conditions: HCT-116, 48 h
[20] = system: HCC 2998; assay: Cytotoxicity against Homo sapiens (human) HCC2998 cells after 48 hr by sulforhodamine B assay; conditions: HCC 2998, 48 h
[21] = system: COLO 205; assay: Cytotoxicity against Homo sapiens (human) COLO205 cells after 48 hr by sulforhodamine B assay; conditions: COLO 205, 48 h
[22] = system: NCI-H522; assay: Cytotoxicity against Homo sapiens (human) NCI-H522 cells after 48 hr by sulforhodamine B assay; conditions: NCI-H522, 48 h
[23] = system: NCI-H322M; assay: Cytotoxicity against Homo sapiens (human) NCI-H322M cells after 48 hr by sulforhodamine B assay
[24] = system: NCI-H23; assay: Cytotoxicity against Homo sapiens (human) NCI-H23 cells after 48 hr by sulforhodamine B assay; conditions: NCI-H23, 48 h
[25] = system: NCI-H226; assay: Cytotoxicity against Homo sapiens (human) NCI-H226 cells after 48 hr by sulforhodamine B assay; conditions: NCI-H226, 48 h
[26] = system: HOP-62; assay: Cytotoxicity against Homo sapiens (human) HOP62 cells after 48 hr by sulforhodamine B assay; conditions: HOP-62, 48 h
[27] = system: EKVX; assay: Cytotoxicity against Homo sapiens (human) EKVX cells after 48 hr by sulforhodamine B assay
[28] = system: A549; assay: Cytotoxicity against Homo sapiens (human) A549 cells after 48 hr by sulforhodamine B assay; conditions: A549, 48 h
[29] = system: MOLT-4; assay: Cytotoxicity against Homo sapiens (human) MOLT4 cells after 48 hr by sulforhodamine B assay; conditions: MOLT-4, 48 h
[30] = system: K562; assay: Cytotoxicity against Homo sapiens (human) K562 cells after 48 hr by sulforhodamine B assay; conditions: K562, 48 h
[31] = system: SF-268; assay: Cytotoxicity against Homo sapiens (human) SF268 cells assessed as cell growth at 10^-4 M after 48 hr by […] assay; conditions: SF-268, 48 h, read-out: Activity
[32] = read-out: LC50 (the source's name)

For `ClCc1ccc(Cn2cnc3nc(Cl)nc(Cl)c32)cc1`, the GI50 [1] was 2.08 µM, the TGI [1] was 4.16 µM and the GI50 [2] was 1.41 µM. For the same molecule, the LC50 [2] was 5.75 µM, the TGI [2] was 2.81 µM and the GI50 [3] was 0.3 µM. The LC50 [3] was 2.51 µM, the TGI [3] was 0.72 µM and the GI50 [4] was 1.65 µM. For the same molecule, the LC50 (concentration causing 50% net cell kill) [4] was 6.02 µM, the TGI [4] was 3.16 µM and the GI50 [5] was 2.23 µM. For the same molecule, the LC50 (concentration killing 50% of cells) [5] was 34.7 µM, the TGI [5] was 5.49 µM and the GI50 [6] was 2.45 µM. It also gave an LC50 [6] of 31.6 µM, a TGI [6] of 9.12 µM and a GI50 [7] of 1.12 µM. The LC50 (concentration killing 50% of cells) [7] was 6.45 µM, the TGI [7] was 2.69 µM and the GI50 [8] was 1.77 µM. The LC50 (concentration killing 50% of cells) [8] was 5.75 µM, the TGI [8] was 3.23 µM and the GI50 [9] was 1.86 µM. For the same molecule, the LC50 (concentration killing 50% of cells) [9] was 5.88 µM, the TGI [9] was 3.31 µM and the GI50 [10] was 1.62 µM. It also gave an LC50 [10] of 5.75 µM, a TGI [10] of 3.01 µM and a GI50 [11] of 2.08 µM. It also gave a TGI [11] of 4.46 µM, a GI50 [12] of 1.62 µM and an LC50 [12] of 6.02 µM. For the same molecule, the TGI [12] was 3.09 µM, the GI50 [13] was 17.8 µM and the LC50 (concentration causing 50% cell kill) [13] was 75.9 µM. It also gave a TGI [13] of 37.1 µM, a GI50 [14] of 1.86 µM and an LC50 (50% lethal concentration) [14] of 6.6 µM. It also gave a TGI [14] of 3.46 µM, a GI50 [15] of 1.65 µM and a TGI [15] of 3.98 µM. For the same molecule, the GI50 [16] was 1.44 µM, the TGI [16] was 2.75 µM and the CC50 [16, 32] was 5.37 µM. It also gave a GI50 [17] of 0.26 µM, a TGI [17] of 0.67 µM and a CC50 [17, 32] of 2.45 µM. It also gave a GI50 [18] of 3.54 µM, a TGI [18] greater than 100 µM and a CC50 [18, 32] greater than 100 µM. For the same molecule, the GI50 [19] was 0.12 µM, the TGI [19] was 1.24 µM and the CC50 [19, 32] was greater than 100 µM. For the same molecule, the GI50 [20] was 2.04 µM, the TGI [20] was 3.8 µM and the CC50 [20, 32] was 7.07 µM. For the same molecule, the GI50 [21] was 17.4 µM, the TGI [21] was greater than 100 µM and the CC50 [21, 32] was greater than 100 µM. The GI50 [22] was 1.77 µM, the TGI [22] was 4.57 µM and the CC50 [22, 32] was 38 µM. It also gave a GI50 [23] of 0.67 µM, a TGI [23] of 1.9 µM and a CC50 [23, 32] of 4.46 µM. It also gave a GI50 [24] of 2.34 µM, a TGI [24] of 4.57 µM and a CC50 [24, 32] of 8.91 µM. The GI50 [25] was 1.23 µM, the TGI [25] was 3.89 µM and the CC50 [25, 32] was 15.5 µM. The GI50 [26] was 1.9 µM, the TGI [26] was 3.89 µM and the CC50 [26, 32] was 7.94 µM. It also gave a GI50 [27] of 1.9 µM, a TGI [27] of 3.46 µM and a CC50 [27, 32] of 6.3 µM. The GI50 [28] was 2.13 µM, the TGI [28] was 4.07 µM and the CC50 [28, 32] was 7.94 µM. It also gave a GI50 [29] of 1.38 µM, a TGI [29] of 5.49 µM and a CC50 [29, 32] greater than 100 µM. For the same molecule, the GI50 [30] was 3.31 µM, the TGI [30] was greater than 100 µM and the CC50 [30, 32] was greater than 100 µM. For the same molecule, the growth at 100 µM [31] was 0%.
